# Experimental data as given in PubChem BioAssay AID588787 (The Scripps Research Institute Molecular Screening Center, 2011).
# The source made the active and inactive calls.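 The calls were made as follows: active = pPAFAH enzyme ratio at or below 0.5 while fewer than two other serine hydrolases drop that low; inactive = the rest.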
# What was measured:
# Assay in all cases: serine hydrolase selectivity in soluble brain proteome, late-stage follow-up, selectivity assay for pPAFAH inhibitor project, biochemical, LC-MS/MS, mouse brain soluble proteome (AID 588787)
# Abhd11 = conditions: ABPP-MudPIT FP-biotin spectral counts, at 1 µM, active compounds read low
# Abhd4 = Abhd4 (UniProt Q8VD66); conditions: ABPP-MudPIT FP-biotin spectral counts, at 1 µM, active compounds read low
# Acot1 = conditions: ABPP-MudPIT FP-biotin spectral counts, at 1 µM, active compounds read low
# Acot2 = conditions: ABPP-MudPIT FP-biotin spectral counts, at 1 µM, active compounds read low
# Acot7 = conditions: ABPP-MudPIT FP-biotin spectral counts, at 1 µM, active compounds read low
# [1] = target: Acyl-protein thioesterase 1 (Mus musculus) (UniProt P97823); conditions: ABPP-MudPIT FP-biotin spectral counts, Lypla1, at 1 µM, active compounds read low
# Apeh = conditions: ABPP-MudPIT FP-biotin spectral counts, at 1 µM, active compounds read low
# Dpp8 = conditions: ABPP-MudPIT FP-biotin spectral counts, at 1 µM, active compounds read low
# Dpp9 = conditions: ABPP-MudPIT FP-biotin spectral counts, at 1 µM, active compounds read low
# Es1 = conditions: ABPP-MudPIT FP-biotin spectral counts, at 1 µM, active compounds read low
# Esd = conditions: ABPP-MudPIT FP-biotin spectral counts, at 1 µM, active compounds read low
# Fasn = conditions: ABPP-MudPIT FP-biotin spectral counts, at 1 µM, active compounds read low
# Lipe = conditions: ABPP-MudPIT FP-biotin spectral counts, at 1 µM, active compounds read low
# Lypla2 = conditions: ABPP-MudPIT FP-biotin spectral counts, at 1 µM, active compounds read low
# Lyplal1 = conditions: ABPP-MudPIT FP-biotin spectral counts, at 1 µM, active compounds read low
# Magl = conditions: ABPP-MudPIT FP-biotin spectral counts, at 1 µM, active compounds read low
# Pafah1b2 = conditions: ABPP-MudPIT FP-biotin spectral counts, at 1 µM, active compounds read low
# Pafah1b3 = conditions: ABPP-MudPIT FP-biotin spectral counts, at 1 µM, active compounds read low
# [2] = target: Palmitoyl-protein thioesterase ABHD10, mitochondrial (Mus musculus) (UniProt Q6PE15); conditions: ABPP-MudPIT FP-biotin spectral counts, at 1 µM, active compounds read low
# Pla2g15 = conditions: ABPP-MudPIT FP-biotin spectral counts, at 1 µM, active compounds read low
# [3] = target: Platelet-activating factor acetylhydrolase (Mus musculus) (UniProt Q60963); conditions: ABPP-MudPIT FP-biotin spectral counts, Pla2g7 (pPAFAH), at 1 µM, active compounds read low
# Pme1 = conditions: ABPP-MudPIT FP-biotin spectral counts, at 1 µM, active compounds read low
# Prepl = conditions: ABPP-MudPIT FP-biotin spectral counts, at 1 µM, active compounds read low
# [4] = target: Prolyl endopeptidase (Mus musculus) (UniProt Q9QUR6); conditions: ABPP-MudPIT FP-biotin spectral counts, Prep, at 1 µM, active compounds read low
# Rbbp9 = conditions: ABPP-MudPIT FP-biotin spectral counts, at 1 µM, active compounds read low
# Tpp2 = conditions: ABPP-MudPIT FP-biotin spectral counts, at 1 µM, active compounds read low
# Sequence of Acyl-protein thioesterase 1 (Mus musculus) (P97823 whole entry, looked up): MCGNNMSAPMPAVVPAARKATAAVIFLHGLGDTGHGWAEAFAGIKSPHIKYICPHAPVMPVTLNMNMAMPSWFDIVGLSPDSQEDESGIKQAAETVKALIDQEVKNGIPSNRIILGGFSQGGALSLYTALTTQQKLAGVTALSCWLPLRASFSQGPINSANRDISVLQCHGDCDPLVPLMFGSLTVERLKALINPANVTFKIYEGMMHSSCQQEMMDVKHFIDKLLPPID
# Sequence of Platelet-activating factor acetylhydrolase (Mus musculus) (Q60963 whole entry, looked up): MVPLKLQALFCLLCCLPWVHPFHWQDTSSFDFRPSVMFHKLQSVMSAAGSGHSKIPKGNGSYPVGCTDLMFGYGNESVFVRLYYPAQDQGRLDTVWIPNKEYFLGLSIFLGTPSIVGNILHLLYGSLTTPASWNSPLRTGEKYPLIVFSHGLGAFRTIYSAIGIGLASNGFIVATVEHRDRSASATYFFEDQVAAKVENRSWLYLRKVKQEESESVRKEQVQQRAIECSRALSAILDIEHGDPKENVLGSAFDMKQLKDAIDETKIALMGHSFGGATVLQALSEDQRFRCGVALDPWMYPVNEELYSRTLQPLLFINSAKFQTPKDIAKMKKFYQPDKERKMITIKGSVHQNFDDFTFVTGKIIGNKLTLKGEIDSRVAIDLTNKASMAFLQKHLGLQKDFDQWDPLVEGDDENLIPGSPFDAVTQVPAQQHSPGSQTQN
# Sequence of Prolyl endopeptidase (Mus musculus) (Q9QUR6 whole entry, looked up): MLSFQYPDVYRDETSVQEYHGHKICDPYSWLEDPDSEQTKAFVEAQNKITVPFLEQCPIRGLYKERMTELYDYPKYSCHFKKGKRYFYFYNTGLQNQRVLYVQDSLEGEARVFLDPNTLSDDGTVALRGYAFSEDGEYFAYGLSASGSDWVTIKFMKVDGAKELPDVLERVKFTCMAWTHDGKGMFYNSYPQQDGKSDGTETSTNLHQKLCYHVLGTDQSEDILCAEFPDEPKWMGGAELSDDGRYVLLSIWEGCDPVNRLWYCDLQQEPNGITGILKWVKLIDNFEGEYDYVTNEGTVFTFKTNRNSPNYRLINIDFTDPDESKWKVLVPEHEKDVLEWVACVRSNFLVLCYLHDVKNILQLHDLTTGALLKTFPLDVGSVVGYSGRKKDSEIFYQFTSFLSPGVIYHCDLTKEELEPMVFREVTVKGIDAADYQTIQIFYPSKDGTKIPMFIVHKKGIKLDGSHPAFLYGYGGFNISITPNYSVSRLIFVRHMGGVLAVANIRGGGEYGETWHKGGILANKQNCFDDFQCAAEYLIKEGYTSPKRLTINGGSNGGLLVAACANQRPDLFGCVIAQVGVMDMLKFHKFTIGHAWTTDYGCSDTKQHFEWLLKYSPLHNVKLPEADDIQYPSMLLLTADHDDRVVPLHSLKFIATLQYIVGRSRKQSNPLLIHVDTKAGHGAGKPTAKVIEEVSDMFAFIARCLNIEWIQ
# Sequence of Abhd4 (Q8VD66 whole entry, looked up): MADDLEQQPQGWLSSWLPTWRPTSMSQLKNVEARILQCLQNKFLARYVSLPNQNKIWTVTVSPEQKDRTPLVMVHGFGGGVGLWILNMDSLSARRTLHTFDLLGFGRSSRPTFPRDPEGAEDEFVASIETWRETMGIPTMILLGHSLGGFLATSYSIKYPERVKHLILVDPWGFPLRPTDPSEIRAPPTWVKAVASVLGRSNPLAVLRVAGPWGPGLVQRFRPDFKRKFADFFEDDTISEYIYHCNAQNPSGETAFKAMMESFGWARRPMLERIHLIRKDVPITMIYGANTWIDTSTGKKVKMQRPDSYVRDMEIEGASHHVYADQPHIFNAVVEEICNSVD
# Sequence of Palmitoyl-protein thioesterase ABHD10, mitochondrial (Mus musculus) (Q6PE15 whole entry, looked up): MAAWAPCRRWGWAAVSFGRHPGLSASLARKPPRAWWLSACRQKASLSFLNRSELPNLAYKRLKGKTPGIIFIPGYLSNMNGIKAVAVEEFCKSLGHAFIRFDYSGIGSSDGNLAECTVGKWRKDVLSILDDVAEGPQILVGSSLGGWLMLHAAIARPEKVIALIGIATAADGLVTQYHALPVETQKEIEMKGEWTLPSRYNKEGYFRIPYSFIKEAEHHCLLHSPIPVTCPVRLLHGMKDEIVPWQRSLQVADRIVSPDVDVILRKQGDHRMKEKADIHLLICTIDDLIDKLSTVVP
smiles,measurement,setting,value
Cc1cc(N2CCN(C(=O)Oc3ccc(-c4ccccc4)cn3)CC2)c2ccccc2n1,ratio of spectral counts to DMSO,Abhd11,1.2 (inactive)
same,ratio of spectral counts to DMSO,Abhd4,0.8 (inactive)
same,ratio of spectral counts to DMSO,Acot1,1.1 (inactive)
same,ratio of spectral counts to DMSO,Acot2,1.1 (inactive)
same,ratio of spectral counts to DMSO,Acot7,0.8 (inactive)
same,ratio of spectral counts to DMSO,[1],1.1 (inactive)
same,ratio of spectral counts to DMSO,Apeh,1.1 (inactive)
same,ratio of spectral counts to DMSO,Dpp8,1.1 (inactive)
same,ratio of spectral counts to DMSO,Dpp9,1.3 (inactive)
same,ratio of spectral counts to DMSO,Es1,0
same,ratio of spectral counts to DMSO,Esd,1.1 (inactive)
same,ratio of spectral counts to DMSO,Fasn,1.1 (inactive)
same,ratio of spectral counts to DMSO,Lipe,0.9 (inactive)
same,ratio of spectral counts to DMSO,Lypla2,1.3 (inactive)
same,ratio of spectral counts to DMSO,Lyplal1,1.1 (inactive)
same,ratio of spectral counts to DMSO,Magl,0.8 (inactive)
same,ratio of spectral counts to DMSO,Pafah1b2,1.4 (inactive)
same,ratio of spectral counts to DMSO,Pafah1b3,1.2 (inactive)
same,ratio of spectral counts to DMSO,[2],1.1 (inactive)
same,ratio of spectral counts to DMSO,Pla2g15,1.1 (inactive)
same,ratio of spectral counts to DMSO,[3],0
same,ratio of spectral counts to DMSO,Pme1,1.1 (inactive)
same,ratio of spectral counts to DMSO,Prepl,1.1 (inactive)
same,ratio of spectral counts to DMSO,[4],1.2 (inactive)
same,ratio of spectral counts to DMSO,Rbbp9,1.1 (inactive)
same,ratio of spectral counts to DMSO,Tpp2,0.8 (inactive)
